Legend:
[1] = Stability of DHEA polymorph preparations under ambient conditions
[2] = Uptake and absorption of DHEA polymorph preparations upon oral administration
[3] = system: SLE patients; assay: Clinical trial: percent responders (weighted average change from baseline, no clinical deterioration); type: in vivo, human; conditions: 200 mg DHEA per day orally
Method: (§1) Clinical trial results were analyzed for each group (placebo and DHEA-treated) as a whole (“per-protocol”), as well as broken down into three subgroups: all patients with SLEDAI values greater than 2 (“active SLE”), and patients having SLEDAI values greater than 2 and receiving corticosteroids and/or immunosuppressives (“more severe SLE”).
(§2) Patients received 200 mg DHEA per day, administered orally in capsule form, or with a non-drug capsule (placebo). Mean duration of the treatment for each group was somewhat higher for the placebo group (308.4 days for placebo vs 288.4 days for DHEA, but median durations were almost the identical (362 vs. 359 days, respectively.).
The last three columns of the table show the results of the study for patients experiencing at least one flare during the study.

[4] = system: SLE patients; assay: Clinical trial: effect of DHEA treatment on SLE flares; type: in vivo, human; conditions: for Patients with at least one flare, patients/total / Patients with at least one flare, percent: 200 mg DHEA per day orally
Method: A clinical trial was conducted to determine the effect of DHEA treatment on SLE flares. An SLE flare is a significant new clinical manifestation of the disease (i.e., one that was not previously present in the patient or not previously as severe) and/or a clinical intervention. Table 6 identifies the clinical findings or interventions that were scored as flares in the present study. Any patient having at least one of these finding or interventions was scored as having a flare.
as §1, §2
At about 200 days of treatment, incidence of flare is at least about 5% lower in the treated patients, and from this point on, the difference in flare incidence between the treated and placebo patients grows to at least about 10%.

[5] = system: SLE patients; assay: Clinical trial: responders by window analysis of SLEDAI, SLAM, Patient VAS and KFSS; type: in vivo, human; conditions: for Responders (3% window), number of patients / Responders (3% window), percent / Responders (5% window), number of patients / Responders (5% window), percent / Responders (10% window), number of patients / Responders (10% window), percent: 200 mg DHEA per day orally
Method: For each of the disease activity variables (SLEDAI and SLAM) and constitutional symptom variables (Patient VAS and KFSS), the value of interest for each patient is determined as the difference between a pretreatment baseline value, calculated as the mean of two baseline values, taken prior to any treatment with DHEA), and values taken during treatment, calculated as the mean of all values obtained during on-treatment scheduled visits, e.g., 13, 26, 39, and 52 weeks of treatment.
For each of the variables, an improvement in the variable is defined as either (i) no change in the variable or (ii) a decrease in the variable. Thus, for example, an improvement in a baseline SLEDAI score of 5.00 would be any value 5.00 or less. A change in a variable that represents a worsening of the state or condition is any increase in the measured value.
Thus, for a baseline SLEDAI value of 5.0, and a 3% cap, the maximum allowed increase in SLEDAI value, for classification as a 3% responder is 0.15
The mean baseline scores represent the mean of two value determinations made prior to treatment.
Each group, in turn, can be broken down into three subgroups: (I) total patient population (II) all patients with SLEDAI values greater than 2, and (III) patients having SLEDAI values greater than 2 and currently being treated with prednisone (at dose greater than 2 mg/prednisone /day), where the number of patients in each subgroup is indicated by N in the Table 5.
as §2, with “Treatment was with” for “Patients received”, “(308” for “(308.4”
The three columns in the table represent total of the three subgroups for both the placebo and treatment group. The three rows represent responders in which an improvement (no change or decrease in value) in three the three of the four variables was observed and an increase in the fourth variable of no more than 3% (first row), 5% (second row), and 10% (third row) of the pretreatment baseline value.

[6] = Active SLE (SLEDAI > 2 at baseline)
[7] = More Severe SLE (SLEDAI > 2 and receiving corticosteroids and/or immunosuppressives at baseline)
[8] = Group II: All patients with SLEDAI > 2
[9] = Group II: All patients with SLEDAI > 2, N = 132
[10] = Group III: All patients with SLEDAI > 2, Pred > 0
[11] = Group III: All patients with SLEDAI > 2, Pred > 0, N = 73

C[C@]12CC[C@H](O)CC1=CC[C@@H]1[C@@H]2CC[C@]2(C)C(=O)CC[C@@H]12 [DHEA form I, dehydroepiandrosterone]
Stability [1]: highly stable under ambient conditions | Uptake by the GI tract [2]: good uptake by the GI tract

C[C@]12CC[C@H](O)CC1=CC[C@@H]1[C@@H]2CC[C@]2(C)C(=O)CC[C@@H]12 [DHEA form II, dehydroepiandrosterone]
Stability [1]: stable under ambient conditions | Rate of absorption [2]: rapid rate of absorption (greater than the form I polymorph) | Uptake by the GI tract [2]: good uptake by the GI tract

C[C@]12CC[C@H](O)CC1=CC[C@@H]1[C@@H]2CC[C@]2(C)C(=O)CC[C@@H]12 [DHEA, dehydroepiandrosterone]
Responders, patients/total [3, 6]: (87/132) | Responders, percent [3, 6]: 66% | Responders, patients/total [3, 7]: (51/80) | Responders, percent [3, 7]: 64% | Responders, patients/total ([3]; Per Protocol population): (99/170) | Responders, percent ([3]; Per Protocol population): 58% | Patients with at least one flare, patients/total [4, 6]: (31/132) | Patients with at least one flare, percent [4, 6]: 24% | Time of treatment at which reduction of the risk of flare begins ([4]; FIG. 1, active SLE patients, compared to the placebo group): about 85 days | Incidence of flare lower in treated patients than placebo ([4]; FIG. 1, at about 200 days of treatment): at least 5% | Difference in flare incidence between treated and placebo patients ([4]; FIG. 1, grows to this after about 200 days of treatment): at least 10% | Patients with at least one flare, patients/total [4, 7]: (21/80) | Patients with at least one flare, percent [4, 7]: 26% | Patients with at least one flare, patients/total ([4]; Per Protocol population): (37/170) | Patients with at least one flare, percent ([4]; Per Protocol population): 22% | Effect on occurrence of flares ([4]; Table 8 study, effect increased with severity of disease): reduced the occurrence of flares | Improvement over placebo, responders (3% window) ([5]; Group I: All patients): 39.8% | Improvement over placebo, responders (5% window) ([5]; Group I: All patients): 32.1% | Improvement over placebo, responders (10% window) ([5]; Group I: All patients): 38.0% | Responders (3% window), number of patients ([5]; Group I: All patients, N = 170): 77 | Responders (3% window), percent ([5]; Group I: All patients, N = 170): 45.3% | Responders (5% window), number of patients ([5]; Group I: All patients, N = 170): 79 | Responders (5% window), percent ([5]; Group I: All patients, N = 170): 46.5% | Responders (10% window), number of patients ([5]; Group I: All patients, N = 170): 92 | Responders (10% window), percent ([5]; Group I: All patients, N = 170): 54.1% | Improvement over placebo, responders (3% window) [5, 8]: 54.4% | Improvement over placebo, responders (5% window) [5, 8]: 47.1% | Improvement over placebo, responders (10% window) [5, 8]: 51.1% | Responders (3% window), number of patients [5, 9]: 72 | Responders (3% window), percent [5, 9]: 54.5% | Responders (5% window), number of patients [5, 9]: 73 | Responders (5% window), percent [5, 9]: 55.3% | Responders (10% window), number of patients [5, 9]: 84 | Responders (10% window), percent [5, 9]: 63.6% | Improvement over placebo, responders (3% window) [5, 10]: 64.3% | Improvement over placebo, responders (5% window) [5, 10]: 68.6% | Improvement over placebo, responders (10% window) [5, 10]: 82.2% | Responders (3% window), number of patients [5, 11]: 39 | Responders (3% window), percent [5, 11]: 53.4% | Responders (5% window), number of patients [5, 11]: 40 | Responders (5% window), percent [5, 11]: 54.8% | Responders (10% window), number of patients [5, 11]: 45 | Responders (10% window), percent [5, 11]: 61.6%

— US6552010B1 (Genelabs Technologies, Inc., priority 1999, dated 2003)
